# Experimental data as given in patent publication US9050345B2, “Pyrrolotriazines as potassium ion channel inhibitors” (BRISTOL-MYERS SQUIBB COMPANY, priority 2013, dated 2015).
# Biological target: T1, human KV 1.5 (IKur) (Homo sapiens, UniProt P22460)
# T1 construct: expressed in transfected cells
# Experiment: block of IKur current in patch clamped L-929 cells expressing human Kv1.5
# Type: cell-based
# Conditions: 0.3 μM; patch clamped mammalian L-929 cells stably expressing human Kv1.5
# From the text: Assays to determine the degree of activity of a compound as an IKur inhibitor are well known in the art and are described in references such as J. Gen. Physiol., 101(4):513-543 (April 1993), and Br. J. Pharmacol., 115(2):267-274 (May 1995).
# Synders, D. J. et al., “A rapidly activating and slowly inactivating potassium channel cloned from human heart: functional analysis after stable mammalian cell culture expression”, J. Gen. Physiol., 101:513-543 (1993). • 2. Zhou, Z. et al., “Block of HERG potassium channels by the antihistamine astemizole and its metabolites desmethylastemizole and norastemizole”, J. Cardiovasc. Electrophysiol., 10(6):836-843 (1999).
# T1 sequence (P22460 whole entry): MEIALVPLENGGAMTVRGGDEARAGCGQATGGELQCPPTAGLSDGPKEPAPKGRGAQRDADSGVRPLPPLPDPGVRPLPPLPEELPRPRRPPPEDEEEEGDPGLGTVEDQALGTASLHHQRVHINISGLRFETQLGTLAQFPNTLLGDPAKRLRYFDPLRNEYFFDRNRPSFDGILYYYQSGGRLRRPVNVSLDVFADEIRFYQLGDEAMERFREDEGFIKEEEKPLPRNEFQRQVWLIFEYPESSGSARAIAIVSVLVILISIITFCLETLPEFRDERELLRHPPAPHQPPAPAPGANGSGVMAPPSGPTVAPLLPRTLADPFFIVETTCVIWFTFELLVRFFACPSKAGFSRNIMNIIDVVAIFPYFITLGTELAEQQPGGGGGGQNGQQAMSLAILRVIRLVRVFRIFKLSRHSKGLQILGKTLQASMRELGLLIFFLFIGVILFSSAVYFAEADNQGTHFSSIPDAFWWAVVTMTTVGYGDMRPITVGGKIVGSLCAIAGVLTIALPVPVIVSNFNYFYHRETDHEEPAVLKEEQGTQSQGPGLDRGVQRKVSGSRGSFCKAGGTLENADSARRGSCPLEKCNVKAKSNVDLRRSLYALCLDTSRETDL
row,KV1_5% Inh L929 @0.3 μM [%],Structure (SMILES)
1,95.01,"NS(=O)(=O)c1cncc(-c2nc(NC(CO)c3ccccn3)c3c(-c4ccccc4)ccn3n2)c1 (stereo not drawn) [Example 33, 5-(4-((2-Hydroxy-1-(pyridin-2-yl)ethyl)amino)-5-phenylpyrrolo[2,1-f][1,2,4]triazin-2-yl)pyridine-3-sulfonamide]"
2,97.45,"NS(=O)(=O)CCc1cncc(-c2nc(NCc3ccccn3)c3c(-c4ccccc4)ccn3n2)c1 [Example 38, 2-(5-(5-Phenyl-4-(pyridin-2-ylmethylamino)pyrrolo[1,2-f][1,2,4]triazin-2-yl)pyridin-3-yl)ethanesulfonamide]"

# Same assay, conditions: L929, 0.3 μM; patch clamped mammalian L-929 cells stably expressing human Kv1.5; read-out: KV1_5% Inh L929 @0.3 μM
row,Structure (SMILES),inhibition at 0.3 µM [%]
1,"Cc1nc(CNc2nc(-c3cncc(S(N)(=O)=O)c3)nn3ccc(-c4ccccc4)c23)cs1 [Example 32, 5-(4-((2-Methylthiazol-4-yl)methylamino)-5-phenylpyrrolo[1,2-f][1,2,4]triazin-2-yl)pyridine-3-sulfonamide]",99.3
2,"NS(=O)(=O)c1cncc(-c2nc(NC(CO)c3ccccn3)c3c(-c4ccccc4)ccn3n2)c1 (stereo not drawn) [Example 33, 5-(4-((2-Hydroxy-1-(pyridin-2-yl)ethyl)amino)-5-phenylpyrrolo[2,1-f][1,2,4]triazin-2-yl)pyridine-3-sulfonamide]",87.8
3,"COC(=O)NC1(c2nc(NCc3ccccn3)c3c(-c4ccccc4)ccn3n2)CC1 [Example 35, Methyl 1-(5-phenyl-4-(pyridin-2-ylmethylamino)pyrrolo[1,2-f][1,2,4]triazin-2-yl)cyclopropylcarbamate]",92.8
4,"CC(=O)NC1(c2nc(NCc3ccccn3)c3c(-c4ccccc4)ccn3n2)CC1 [Example 36, N-(1-(5-Phenyl-4-(pyridin-2-ylmethylamino)pyrrolo[1,2-f][1,2,4]triazin-2-yl)cyclopropyl)acetamide]",46
5,"NS(=O)(=O)c1cc(-c2nc(NCc3ccccn3)c3c(-c4ccccc4)ccn3n2)cnc1C(F)F [Example 39, 2-(Difluoromethyl)-5-(5-phenyl-4-(pyridin-2-ylmethylamino)pyrrolo[1,2-f][1,2,4]triazin-2-yl)pyridine-3-sulfonamide]",97.1
6,"CC(C)Oc1ncc(-c2nc(NCc3ccccn3)c3c(-c4ccccc4)ccn3n2)cc1S(N)(=O)=O [Example 41, 2-Isopropoxy-5-(5-phenyl-4-((pyridin-2-ylmethyl)amino)pyrrolo[2,1-f][1,2,4]triazin-2-yl)pyridine-3-sulfonamide]",95.1
7,"CC(=O)Nc1cncc(-c2nc(NCc3ccccn3)c3c(-c4ccccc4)ccn3n2)n1 [Example 42, N-(6-(5-Phenyl-4-(pyridin-2-ylmethylamino)pyrrolo[1,2-f][1,2,4]triazin-2-yl)pyrazin-2-yl)acetamide]",99.4
8,"CC(=O)Nc1cccc(-c2nc(NCc3ccccn3)c3c(-c4ccccc4)ccn3n2)c1 [Example 48, N-(3-(5-phenyl-4-(pyridin-2-ylmethylamino)pyrrolo[1,2-f][1,2,4]triazin-2-yl)phenyl) acetamide]",96.6
9,"NS(=O)(=O)c1cc(-c2nc(NCc3ccccn3)c3c(-c4ccccc4)ccn3n2)cnc1O [Example 49, 2-hydroxy-5-(5-phenyl-4-(pyridin-2-ylmethylamino)pyrrolo[1,2-f][1,2,4]triazin-2-yl)pyridine-3-sulfonamide]",84.9
10,NS(=O)(=O)Nc1cccc(-c2nc(NCc3ccccn3)c3c(-c4ccccc4)ccn3n2)c1 [Example 50],97.8
11,"NC(=O)CC(=O)Nc1cncc(-c2nc(NCc3ccccn3)c3c(-c4ccccc4)ccn3n2)c1 [Example 52, N1-(5-(5-phenyl-4-(pyridin-2-ylmethylamino)pyrrolo[1,2-f][1,2,4]triazin-2-yl)pyridin-3-yl)malonamide]",96.1
12,"CC(=O)Nc1ccc(-c2nc(NCc3ccccn3)c3c(-c4ccccc4)ccn3n2)cn1 [Example 54, N-(5-(5-phenyl-4-(pyridin-2-ylmethylamino)pyrrolo[1,2-f][1,2,4]triazin-2-yl)pyridin-2-yl)acetamide]",90.2
13,"NC(=O)CS(=O)(=O)Nc1cncc(-c2nc(NCc3ccccn3)c3c(-c4ccccc4)ccn3n2)c1 [Example 55, 2-(N-(5-(5-phenyl-4-(pyridin-2-ylmethylamino)pyrrolo[1,2-f][1,2,4]triazin-2-yl)pyridin-3-yl)sulfamoyl)acetamide]",20.6
14,"CCCS(=O)(=O)Nc1cncc(-c2nc(NCc3ccccn3)c3c(-c4ccccc4)ccn3n2)c1 [Example 57, N-(5-(5-phenyl-4-(pyridin-2-ylmethylamino)pyrrolo[1,2-f][1,2,4]triazin-2-yl)pyridin-3-yl) propane-1-sulfonamide]",95.5
15,"CC(C)CS(=O)(=O)Nc1cncc(-c2nc(NCc3ccccn3)c3c(-c4ccccc4)ccn3n2)c1 [Example 58, 2-methyl-N-(5-(5-phenyl-4-(pyridin-2-ylmethylamino)pyrrolo [1,2-f][1,2,4]triazin-2-yl)pyridin-3-yl) propane-1-sulfonamide]",96.1
16,"CCOC(=O)CS(=O)(=O)Nc1cccc(-c2nc(NCc3ccccn3)c3c(-c4ccccc4)ccn3n2)c1 [Example 60, ethyl 2-(N-(3-(5-phenyl-4-(pyridin-2-ylmethylamino)pyrrolo[1,2-f][1,2,4]triazin-2-yl)phenyl)sulfamoyl)acetate]",97.6
17,"O=S(=O)(CC(F)(F)F)Nc1cncc(-c2nc(NCc3ccccn3)c3c(-c4ccccc4)ccn3n2)c1 [Example 61, 2,2,2-trifluoro-N-(5-(5-phenyl-4-(pyridin-2-ylmethylamino)pyrrolo [1,2-f][1,2,4]triazin-2-yl)pyridin-3-yl)ethanesulfonamide]",90
18,"CCS(=O)(=O)Nc1cncc(-c2nc(NCc3ccccn3)c3c(-c4ccccc4)ccn3n2)c1 [Example 62, N-(5-(5-phenyl-4-(pyridin-2-ylmethylamino)pyrrolo[1,2-f][1,2,4]triazin-2-yl)pyridin-3-yl)ethanesulfonamide]",97.9
19,"O=S(=O)(CCCCl)Nc1cncc(-c2nc(NCc3ccccn3)c3c(-c4ccccc4)ccn3n2)c1 [Example 63, 3-chloro-N-(5-(5-phenyl-4-(pyridin-2-ylmethylamino)pyrrolo[1,2-f][1,2,4]triazin-2-yl)pyridin-3-yl)propane-1-sulfonamide]",97.8
20,"CC(C)S(=O)(=O)Nc1cncc(-c2nc(NCc3ccccn3)c3c(-c4ccccc4)ccn3n2)c1 [Example 64, N-(5-(5-phenyl-4-(pyridin-2-ylmethylamino)pyrrolo[1,2-f][1,2,4]triazin-2-yl)pyridin-3-yl)propane-2-sulfonamide]",97.6
21,"c1ccc(-c2ccn3nc(-c4cn[nH]c4)nc(NCc4ccccn4)c23)cc1 [Example 65, 5-phenyl-2-(1H-pyrazol-4-yl)-N-(pyridin-2-ylmethyl) pyrrolo[1,2-f][1,2,4] triazin-4-amine]",97.7

# The next lines start with the values.
row,inhibition at 0.3 µM [%],Structure (SMILES)
1,97.3,"CC(C)(C)OC(=O)NC1(c2nc(NCc3ccccn3)c3c(-c4ccccc4)ccn3n2)CC1 [Example 34, tert-Butyl 1-(5-phenyl-4-(pyridin-2-ylmethylamino)pyrrolo[1,2-f][1,2,4]triazin-2-yl)cyclopropylcarbamate]"
2,98.6,"CS(=O)(=O)NC1(c2nc(NCc3ccccn3)c3c(-c4ccccc4)ccn3n2)CC1 [Example 37, N-(1-(5-Phenyl-4-(pyridin-2-ylmethylamino)pyrrolo[1,2-f][1,2,4]triazin-2-yl)cyclopropyl)methanesulfonamide]"
3,40.4,"COc1ncc(-c2nc(N3Cc4cccnc4C3)c3c(-c4ccccc4)ccn3n2)cc1S(N)(=O)=O [Example 40, 2-Methoxy-5-(5-phenyl-4-(5H-pyrrolo[3,4-b]pyridin-6(7H)-yl)pyrrolo[1,2-f][1,2,4]triazin-2-yl)pyridine-3-sulfonamide]"
4,90.1,"COC(=O)C(CS(N)(=O)=O)NC(=O)c1cncc(-c2nc(NCc3ccccc3)c3c(-c4ccccc4)ccn3n2)c1 (stereo not drawn) [Example 45, Methyl 2-(5-(4-(benzylamino)-5-phenylpyrrolo[2,1-f][1,2,4]triazin-2-yl)nicotinamido)-3-sulfamoylpropanoate]"
5,94.8,"CC(=O)Nc1cncc(-c2nc(NCc3ccccn3)c3c(-c4ccccc4)ccn3n2)c1 [Example 47, N-(5-(5-phenyl-4-(pyridin-2-ylmethylamino)pyrrolo[1,2-f][1,2,4]triazin-2-yl)pyridin-3-yl)acetamide]"
6,88.2,"CCOC(=O)CS(=O)(=O)Nc1cncc(-c2nc(NCc3ccccn3)c3c(-c4ccccc4)ccn3n2)c1 [Example 51, ethyl 2-(N-(5-(5-phenyl-4-(pyridin-2-ylmethylamino)pyrrolo[1,2-f][1,2,4]triazin-2-yl)pyridin-3-yl)sulfamoyl)acetate]"
7,98.1,"CC(=O)Nc1ccccc1-c1nc(NCc2ccccn2)c2c(-c3ccccc3)ccn2n1 [Example 53, N-(2-(5-phenyl-4-(pyridin-2-ylmethylamino)pyrrolo[1,2-f][1,2,4]triazin-2-yl)phenyl) acetamide]"
8,93.8,"O=S(=O)(Nc1cncc(-c2nc(NCc3ccccn3)c3c(-c4ccccc4)ccn3n2)c1)C1CC1 [Example 56, N-(5-(5-phenyl-4-(pyridin-2-ylmethylamino)pyrrolo[1,2-f][1,2,4]triazin-2-yl)pyridin-3-yl) cyclopropanesulfonamide]"
9,97,"CCOC(=O)Nc1cncc(-c2nc(NCc3ccccn3)c3c(-c4ccccc4)ccn3n2)c1 [Example 59, ethyl 5-(5-phenyl-4-(pyridin-2-ylmethylamino)pyrrolo[1,2-f][1,2,4]triazin-2-yl)pyridin-3-ylcarbamate]"
10,89.2,"N#Cc1cccc(-c2nc(NCc3ccccn3)c3c(-c4ccccc4)ccn3n2)c1 [Example 66, 3-(5-phenyl-4-(pyridin-2-ylmethylamino)pyrrolo[1,2-f][1,2,4]triazin-2-yl)benzonitrile]"
